What was measured:
[1] = system: CHRC5 cell line; assay: Reversal of sensitivity of multidrug resistant chinese hamster ovary cell line CHRC/5 expressed as concentration that restores 50% of cytotoxic activity of 5 ug/mL toward doxorubicin; assay type: functional, cell-based; conditions: Cricetulus griseus
[2] = system: CHRC5 cell line; assay: Reversal of sensitivity of multidrug resistant chinese hamster ovary cell line CHRC/5 expressed as concentration that restores 50% of cytotoxic activity of 5 ug/mL toward doxorubicin; Not active; assay type: functional, cell-based, Cricetulus griseus
[3] = system: CHRC5 cell line; assay: Reversal of sensitivity of multidrug resistant chinese hamster ovary cell line CHRC/5 expressed as concentration that restores 50% of cytotoxic activity of 5 ug/mL toward doxorubicin; Toxic alone to cells at 5 uM; assay type: functional, cell-based, Cricetulus griseus

SMILES | EC50 ([1]; read-out: EC50) [nM] | also measured
COc1ccc(CN(C)CCCc2ccc(NC(=O)c3cccc4c(O)c5ccccc5nc34)cc2)cc1OC | 60 | –
COc1ccc(CN(C)CCc2ccc(NC(=O)c3cccc4c(O)c5cccc(OC)c5nc34)cc2)cc1OC | 21 | –
COc1ccc(CCN(C)CCOc2ccc(NC(=O)c3cccc4c(=O)c5ccccc5oc34)cc2)cc1OC | 180 | –
COc1ccc(CCN(C)CCOc2ccc(NC(=O)c3cccn4c(=O)c5ccccc5nc34)cc2)cc1OC | 210 | –
COc1ccc(CN(C)CCc2ccc(NC(=O)c3cccc4c(O)c5ccccc5nc34)cc2)cc1OC | 27 | –
COc1ccc(CN(C)CCc2ccc(NC(=O)c3cccc4c(O)c5cccc([N+](=O)[O-])c5nc34)cc2)cc1OC | 195 | –
COc1ccc(CN(C)CCc2ccc(NC(=O)c3cccc4c(O)c5cccc(F)c5nc34)c(C)c2)cc1OC | 88 | –
COc1cc2c(cc1OC)CN(CCc1ccccc1NC(=O)c1cccc3c(O)c4cccc(OC)c4nc13)CC2 | 305 | –
COc1ccc(CCN(C)CCCN2CCN(C(=O)c3cccc4c(O)c5ccccc5nc34)CC2)cc1OC | – | EC50 [2]: Not Active
CSc1ccc(CN(C)CCOc2ccc(NC(=O)c3cccc4c(O)c5ccccc5nc34)cc2)cc1 | 690 | –
COc1ccc(CN(C)CCOc2ccc(NC(=O)c3cccc4c(O)c5cccc(OC)c5nc34)c(C)c2)cc1OC | 280 | –
COc1ccc(CN(C)C/C=C/c2ccc(NC(=O)c3cccc4c(O)c5ccccc5nc34)cc2)cc1OC | 270 | –
COc1ccc(CN(C)CCCc2cccc(NC(=O)c3cccc4c(O)c5cccc(OC)c5nc34)c2)cc1OC | 45 | –
COc1ccc(CCN(C)CCOc2ccc(NC(=O)c3cccc4c(=O)c5ccccc5sc34)cc2)cc1OC | 90 | –
CCN(CCOc1ccc(NC(=O)c2cccc3c(=O)c4ccccc4[nH]c23)cc1)Cc1ccccc1 | 110 | –
COc1ccc(CCN(C)CCOc2ccc(NC(=O)c3cccc4c3Oc3ccccc3O4)cc2)cc1OC | 460 | –
O=C(Nc1ccc(OCCCN2CCc3ccccc3C2)cc1)c1cccc2c(=O)c3ccccc3[nH]c12 | 210 | –
CN(CCOc1ccc(NC(=O)c2cccc3c(=O)c4ccccc4[nH]c23)cc1)Cc1ccc(F)cc1 | 930 | –
CCN(CC)CCOc1ccc(NC(=O)c2cccc3c(=O)c4ccccc4[nH]c23)cc1 | – | EC50 [2]: Not Active
COc1ccc(CCN(C)CCOc2ccc(NC(=O)c3cccc4c3C(=O)c3ccccc3C4=O)cc2)cc1OC | 1500 | –
CN(CCOc1ccc(NC(=O)c2cccc3c(=O)c4ccccc4[nH]c23)cc1)Cc1ccc2c(c1)OCO2 | 550 | –
COc1ccc(CN(C)CCOc2ccc(NC(=O)c3cccc4c(=O)c5ccccc5[nH]c34)cc2)cc1 | 650 | –

SMILES | EC50 ([1]; read-out: EC50) [nM] | also measured
COc1ccc(CCN(C)CCOc2ccc(NC(=O)c3cccc4c3Nc3ccccc3S4)cc2)cc1OC | 180 | –
CN(CCOc1ccc(NC(=O)c2cccc3c(=O)c4ccccc4[nH]c23)cc1)Cc1ccccc1 | 720 | –
Cc1ccc(CN(C)CCOc2ccc(NC(=O)c3cccc4c(=O)c5ccccc5[nH]c34)cc2)cc1 | 240 | –
COc1ccccc1CN(C)CCOc1ccc(NC(=O)c2cccc3c(=O)c4ccccc4[nH]c23)cc1 | 510 | –
COc1ccc(CNCCCOc2ccc(NC(=O)c3cccc4c(=O)c5ccccc5[nH]c34)cc2)cc1OC | 525 | –
COc1cc2c(cc1OC)CN(CCCOc1ccc(NC(=O)c3cccc4c(=O)c5ccccc5[nH]c34)cc1)CC2 | 50 | –
CN(CCOc1ccc(NC(=O)c2cccc3c(=O)c4ccccc4[nH]c23)cc1)Cc1ccc(C(F)(F)F)cc1 | 800 | –
COc1cc2c(cc1OC)CN(CCc1ccc(NC(=O)c3cccc4c(=O)c5cccc(OC)c5[nH]c34)cc1)CC2 | 21 | –
COc1ccc(CN(C)Cc2ccc(NC(=O)c3cccc4c(O)c5ccccc5nc34)cc2)cc1OC | 370 | –
COc1ccc(CN(C)CCOc2ccc(NC(=O)c3cccc4c(=O)cc(-c5ccccc5)[nH]c34)cc2)cc1OC | 330 | –
COc1ccc(CCN(C)CCOc2ccc(NC(=O)c3cccc4c(Cl)c5ccccc5nc34)cc2)cc1OC | 660 | –
COc1ccc(CCN(C)CCCOc2ccc(NC(=O)c3cccc4c(=O)c5ccccc5[nH]c34)cc2)cc1OC | 90 | –
COc1ccc(CCN(C)CCCC(C#N)(c2ccc(OC)c(OC)c2)C(C)C)cc1OC (stereo not given) | – | EC50 [1]: 3000 nM
COc1ccc(CN(C)CCc2ccccc2NC(=O)c2cccc3c(O)c4cccc(OC)c4nc23)cc1OC | 465 | –
COc1cc2c(cc1OC)CN(CCCc1cccc(NC(=O)c3cccc4c(O)c5cccc(OC)c5nc34)c1)CC2 | 48 | –
COc1cc2c(cc1OC)CN(CCc1cccc(NC(=O)c3cccc4c(O)c5cccc(OC)c5nc34)c1)CC2 | 155 | –
COc1ccc(CN(C)CCc2ccc(NC(=O)c3cccc4c(O)c5cccc(C)c5nc34)cc2)cc1OC | 21 | –
COc1ccc(CN(C)CCCOc2ccc(NC(=O)c3cccc4c(O)c5cccc(F)c5nc34)c(C)c2)cc1OC | 63 | –
COc1ccc(CN(C)CCCSc2ccc(NC(=O)c3cccc4c(O)c5ccccc5nc34)cc2)cc1OC | 45 | –
COc1ccc(CN(C)CCc2ccc(NC(=O)c3cccc4c(O)c5cccc(F)c5nc34)cc2)cc1OC | 18 | –
COc1ccc(CN(C)C/C=C/Cc2ccc(NC(=O)c3cccc4c(O)c5ccccc5nc34)cc2)cc1OC | 150 | –
COc1ccc(CN(C)CCCCc2ccc(NC(=O)c3cccc4c(O)c5cccc(N)c5nc34)cc2)cc1OC | 177 | –

SMILES | EC50 ([1]; read-out: EC50) [nM] | also measured
CN(CCCCCCCCNC(=O)c1cccc2c(O)c3ccccc3nc12)Cc1ccccc1 | 1100 | –
COc1ccc(CN(C)CCOc2ccc(NC(=O)c3cccc4nc5ccccc5nc34)cc2)cc1OC | 330 | –
COc1cc(CCN(C)Cc2ccc(OC)c(OC)c2)ccc1NC(=O)c1cccc2c(O)c3cccc(F)c3nc12 | 21 | –
COc1ccc(CCN(C)CCCN2CCC(NC(=O)c3cccc4c(=O)c5ccccc5[nH]c34)CC2)cc1OC | – | EC50 [2]: Not Active
COc1ccc(CCN(C)CCOc2ccc(NC(=O)c3cccc4cc5ccccc5nc34)cc2)cc1OC | – | EC50 [3]: Toxic
COc1ccc(CN(C)CCOc2ccc(NC(=O)c3cccc4c(O)c5ccccc5nc34)cc2)cc1OC | 90 | –
COc1ccc(CN(C)CCCCc2ccc(NC(=O)c3cccc4c(O)c5ccccc5nc34)cc2)cc1OC | 30 | –
COc1cc(CCCN(C)Cc2ccc(OC)c(OC)c2)ccc1NC(=O)c1cccc2c(O)c3cccc(OC)c3nc12 | 37 | –
COc1ccc(CN(C)CCCOc2ccc(NC(=O)c3cccc4c(O)c5ccccc5nc34)cc2)cc1OC | 36 | –
COc1cc(OC)c2nc3c(C(=O)Nc4ccc(CCN(C)Cc5ccc(OC)c(OC)c5)cc4)cccc3c(O)c2c1 | 22 | –
COc1cc(OCCCN(C)Cc2ccc(OC)c(OC)c2)ccc1NC(=O)c1cccc2c(O)c3cccc(F)c3nc12 | 30 | –
COc1cc(OCCCN(C)Cc2ccc(OC)c(OC)c2)ccc1NC(=O)c1cccc2c(O)c3cccc(C)c3nc12 | 40 | –
CCc1cc(OCCCN(C)Cc2ccc(OC)c(OC)c2)ccc1NC(=O)c1cccc2c(O)c3cccc(F)c3nc12 | 90 | –
COc1ccc(CN(C)CCCc2ccccc2NC(=O)c2cccc3c(O)c4cccc(OC)c4nc23)cc1OC | 585 | –
COc1cc(CCCN(C)Cc2ccc(OC)c(OC)c2)ccc1NC(=O)c1cccc2c(O)c3cccc(F)c3nc12 | 43 | –
COc1ccc(CN(C)CCc2ccc(NC(=O)c3cccc4c(O)c5cccc(C)c5nc34)c(C)c2)cc1OC | 80 | –
COc1ccc(CN(C)CCCOc2ccc(NC(=O)c3cccc4c(O)c5cccc(C)c5nc34)c(C)c2)cc1OC | 93 | –
COc1ccc(CN(C)CCc2ccc(NC(=O)c3cccc4c(=O)c5ccccc5n(C)c34)cc2)cc1OC | 210 | –
COc1ccc(CN(C)CCCCCc2ccc(NC(=O)c3cccc4c(O)c5ccccc5nc34)cc2)cc1OC | 150 | –
COc1cc2c(cc1OC)CN(CCc1ccc(NC(=O)c3cccc4c(O)c5cccc(F)c5nc34)cc1)CC2 | 33 | –
COc1ccc2nc3c(C(=O)Nc4ccc(CCCCN(C)Cc5ccc(OC)c(OC)c5)cc4)cccc3c(O)c2c1 | 120 | –
